From patent US20150238460A1, “Methods and Compositions For Treating Hepatocellular Carcinoma” (priority 2012, published 2015)
Like-named read-outs stand apart in the source and are kept apart here.

How the values were obtained:
[1] = tested on: advanced hepatocellular carcinoma; conditions: cited from earlier work
[2] = tested on: advanced hepatocellular carcinoma; conditions: Asian-Pacific trial, advanced HCC; cited from earlier work
[3] = tested on: advanced, unresectable HCC (various cancers in whole group); experiment: Phase I trial G-202-001, expansion group with modified dosing regimen; assay type: in vivo, human; conditions: fifth HCC patient
Source text: Virtually all anti-cancer agents have the potential to cause infusion reactions, which are reactions that may be allergic or non-allergic in nature and not related to the known toxicity profile of the agent. Infusion reactions are usually thought of as hypersensitivity reactions, despite the absence of an allergic component in many cases.
Endpoints evaluated in the expansion group included safety, tumor response rate, progression-free survival, and overall survival. Additional secondary endpoints included exploration of pharmacodynamic markers associated with various cancers. Assessments were routinely performed during therapy and following therapy if toxicity was the reason therapy was discontinued.
The only FDA-approved therapy for patients with unresectable HCC is sorafenib tosylate, otherwise known as Nexavar® and/or by the chemical name: 4-(4-{3-[4-Chloro-3-(trifluoromethyl)phenyl]ureido}phenoxy)N2methylpyridine-2-carboxamide 4-methylbenzenesulfonate.

[4] = tested on: progressive advanced hepatocellular carcinoma (HCC); conditions: two of four patients, no improvement on therapy
[5] = tested on: Sarcoplasmic/Endoplasmic Reticulum Calcium ATPase (SERCA) pump; conditions: cited from earlier work

CNC(=O)c1cc(Oc2ccc(NC(=O)Nc3ccc(Cl)c(C(F)(F)F)c3)cc2)ccn1.Cc1ccc(S(=O)(=O)O)cc1 [sorafenib, 4-(4-{3-[4-Chloro-3-(trifluoromethyl)phenyl]ureido}phenoxy)N2methylpyridine-2-carboxamide 4-methylbenzenesulfonate]
time to radiologic progression ([1]; SHARP Trial, patients with advanced HCC, no prior systemic treatment): 5.5 months
overall survival ([1]; SHARP Trial, patients with advanced HCC): 10.7 months
average time to disease progression after beginning sorafenib treatment ([1]; clinical trial of 602 patients with HCC (Llovet 2008)): approximately six
median overall survival [2]: 6.5 months
time to radiologic progression [2]: 2.8 months
disease progression on prior sorafenib treatment after ([3]; before G-202): 3 months

8-O-(12-aminododecanoyl)-debutanoyl-thapsigargin aspartate-glutamate-γ-glutamate-γ-glutamate-γ-glutamate OH [G-202]
disease progression reached after number of cycles [4]: no more than two
time without disease progression after ceasing treatment [3]: more than four

C/C=C(/C)C(=O)O[C@H]1C(C)=C2[C@H]([C@@H]1OC(=O)CCCCCCC)[C@@](C)(OC(C)=O)C[C@H](OC(=O)CCC)[C@@]1(O)[C@H]2OC(=O)[C@@]1(C)O [Thapsigargin]
affinity of binding to SERCA pump [5]: high affinity
